The values that follow come from patent US11485720B2, “Anti-infective agents” (University of Dundee, priority 2016, dated 2022).

SMILES strings stand for the structures. In brackets after ≈: the same amount, converted by molar mass. Several values for one entry are separate records, joined by “and”; a condition that tells them apart may be missing. Equal entries are not always repeated. Where two headings read alike, the source gives them in different places.

Data set [1] addresses T1, Plasmodium falciparum lysyl t-RNA synthetase (Pf-KRS1) (Plasmodium falciparum, UniProt Q8IDJ8).
T1 construct: Pf KRS1-; made in house; host or cells: E. coli BL21 (DE3)
As to the kind of experiment: Pf-KRS1 inhibition biochemical assay (Kinase-Glo, ATP depletion). A digest of the protocol:
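Recombinant Pf-KRS1 (75 nM working concentration) in HEPES/KOH/MgCl2/KCl buffer with 3 μM ATP, 60 μM L-lysine, 0.4 mg/ml yeast tRNA and pyrophosphatase; compounds at 50 μM–2.5 nM final. Reaction ran 5 h at room temperature, then remaining ATP was read by Kinase-Glo luminescence. IC50 came from nonlinear fits of % inhibition against controls.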

In data set [2] the test system is Plasmodium falciparum strain 3D7. As to the kind of experiment: Plasmodium falciparum 3D7 in vitro growth inhibition (SYBRgreen I). It counts as cell-based. Conditions: Plasmodium falciparum, 3D7; read-out: pEC50 for Pf 3D7 (converted). A digest of the protocol:
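10-point, 1-in-3 dilution series from a top concentration of 50 μM; parasite growth read as SYBRgreen I fluorescence on double-stranded DNA (ex 485/em 528 nm). EC50 = concentration causing 50% parasite death, from at least 3 independent experiments.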

In data set [3] the test system is Cryptosporidium parvum. Description: In vitro Crytosporidium inhibition assay. Conditions: for EC50: Cryptosporidium parvum, read-out: Cryptosporidium parvum pEC50 (converted). It counts as cell-based. An excerpt: Assay Method for Measurement of In Vitro Inhibition of Crytosporidium.
These experiments were run in accordance with the method of Besssoff et. al. Antimicrob. Agents Chemother. 2013, 57:1804-1814. Results from these experiments are provided in the Experimental Results hereinafter.

The subject of the next data set is Hep G2. Description: Hep G2 in-vitro cytotoxicity assay. It counts as cell-based. Conditions: Homo sapiens, HepG2, read-out: Hs HEPG2 pEC50 (converted). A digest of the protocol:
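Hep G2 human hepatocyte carcinoma cells serve as a general mammalian cell toxicity indicator, following the Mersch-Sundermann procedure.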

In data set [4] the test system is Cryptosporidium parvum. Description: Anti-Cryptosporidium in vivo efficacy, NOD SCID gamma mouse model. Conditions: 50 mg/kg, twice a day (bid), 4 days. An excerpt: Measurement of Anti-Cryptosporidium In Vivo Efficacy
The in vivo measurement of the potential efficacy of compounds of formula (I) in two cryptosporidium models has been carried out.
The cryptosporidiosis NOD SCID gamma mouse model were run as follows: Male NOD SCID gamma mice (NOD.Cg-Prkdc^scid Il2rg^tm1Wjl/SzJ, Jackson Labs) were infected approximately 2 weeks post weaning with 10^5 C. parvum Iowa strain oocysts by oral gavage. Four mice were used per experimental group. This establishes a chronic, asymptomatic infection of the small intestine, cecum, and biliary tree. Fecal parasite shedding is monitored by quantitative PCR to amplify C. parvum DNA. One week after infection (which is the timing with which shedding becomes uniformly detected), compounds are dosed by oral gavage based. Treatment continued for four days total. Fecal oocyst shedding is reported on day 1 (7 days after initial infection with sample taken just prior to the first dose of compound) and day 5 (1 day after completion of the last dose).

The target in another data set is PfLysRS (Plasmodium falciparum, UniProt Q8IDJ8). Conditions: cited from earlier work.
Data set [5] deals with Schistosoma mansoni (Sm) lysyl-tRNA synthetase. Conditions: cited from earlier work.
Data set [6] has as its system blood and liver stages of Plasmodium. Conditions: cited from earlier work.
The conditions of data set [7]: cited from earlier work.
Data set [8] has as its system Leishmania donovani. Description: Leishmania donovani intramacrophage inhibition assay (Ld-INMAC). Type of data set: cell-based. Conditions: intramacrophage amastigotes in THP-1 cells, read-out: Ld-INMAC pEC50 (converted). Here is the method:
Assay Method for Measurement of In Vitro Inhibition of Leishmania donovani.
These experiments were run in accordance with the method as detailed herein and results from these experiments are provided in the Experimental Results hereinafter.
The intramacrophage Leishmania assay was performed as described in de Rycker et al (Antimicrob Agents Chemother, 2013 July; 57(7):2913-22. doi: 10.1128/AAC.02398-12). Briefly, 1 μl of compound was pre-dispensed into 384 well sterile intermediary plates. For single point screening, amphotericin B was added to all wells of column 24 as a positive control (final concentration 2 μM) and DMSO to column 23. For potency determinations, ten-point, one in three dilution curves were created with the highest concentration being 50 μM and on each plate a control curve of amphotericin B was included. Controls were as follows: columns 11 and 12: DMSO, columns 23 and 24: amphotericin B (final concentration 2 μM). To the intermediary plates, 100 μl of THP-1 media was added and plates were shaken for >5 min to ensure complete mixing. THP-1 cells (8,000 per well, 50 μl) were plated into black clear-bottom 384 well plates (Corning) in presence of 10 nM PMA. After 20 min at room temperature, the plates were incubated at 37° C. under 5% CO2 in a humidified incubator for 75 h. The cells were then washed with […] sterile phosphate buffered saline (PBS) supplemented with 1 mM CaCl2, 0.5 mM MgCl2, 0.1% (w/v) bovine serum albumin (PBS-A) and amastigotes were added to all wells at a multiplicity of infection of 5 (40,000 amastigotes per well). After 40 min at room temperature, plates were returned to the incubator. Amastigotes were incubated in the presence of macrophages for 16 h. Any remaining extracellular amastigotes were subsequently removed with an overflow wash of 1 ml PBS-A per well (wash buffer is being aspirated from the top of the well as it is being dispensed) followed by addition of 25 μl of the compound pre-dilutions using a Matrix Hydra DT pipetting station. The final dilution of each compound was 200-fold. Plates were incubated for 72 h and then washed (250 μl PBS-A) and fixed (4% (v/v) formaldehyde-PBS, 30 min, room temperature). After fixation, the wells were washed with 250 μl PBS, stained (10 μg/ml DAPI, 0.4 μg ml-1 HCS Cellmask Deep Red in PBS+0.1% (v/v) Triton X-100, 30 min, room temperature) and washed with 250 μl PBS. Finally, PBS+0.05% (v/v) thimerosal was added to the wells, the plates were sealed and imaged on a high-content microscope (GE IN Cell 1000 or GE IN Cell 2000) using a 10× objective. Image analysis was carried out with GE IN Cell Analyzer 1000 Workstation using the “Multi Target Analysis” module. […]

The next data set has as its system THP-1 cells. As to the kind of experiment: THP-1 host cell count in intramacrophage Leishmania assay. It counts as cell-based. Conditions: Homo sapiens, host cell toxicity, read-out: THP1 pEC50 (converted). Here is the method:
The intramacrophage Leishmania assay was performed as described in de Rycker et al (Antimicrob Agents Chemother, 2013 July; 57(7):2913-22. doi: 10.1128/AAC.02398-12). Briefly, 1 μl of compound was pre-dispensed into 384 well sterile intermediary plates. For single point screening, amphotericin B was added to all wells of column 24 as a positive control (final concentration 2 μM) and DMSO to column 23. For potency determinations, ten-point, one in three dilution curves were created with the highest concentration being 50 μM and on each plate a control curve of amphotericin B was included. Controls were as follows: columns 11 and 12: DMSO, columns 23 and 24: amphotericin B (final concentration 2 μM). To the intermediary plates, 100 μl of THP-1 media was added and plates were shaken for >5 min to ensure complete mixing. THP-1 cells (8,000 per well, 50 μl) were plated into black clear-bottom 384 well plates (Corning) in presence of 10 nM PMA. After 20 min at room temperature, the plates were incubated at 37° C. under 5% CO2 in a humidified incubator for 75 h. The cells were then washed with […] sterile phosphate buffered saline (PBS) supplemented with 1 mM CaCl2, 0.5 mM MgCl2, 0.1% (w/v) bovine serum albumin (PBS-A) and amastigotes were added to all wells at a multiplicity of infection of 5 (40,000 amastigotes per well). After 40 min at room temperature, plates were returned to the incubator. Amastigotes were incubated in the presence of macrophages for 16 h. Any remaining extracellular amastigotes were subsequently removed with an overflow wash of 1 ml PBS-A per well (wash buffer is being aspirated from the top of the well as it is being dispensed) followed by addition of 25 μl of the compound pre-dilutions using a Matrix Hydra DT pipetting station. The final dilution of each compound was 200-fold. Plates were incubated for 72 h and then washed (250 μl PBS-A) and fixed (4% (v/v) formaldehyde-PBS, 30 min, room temperature). After fixation, the wells were washed with 250 μl PBS, stained (10 μg/ml DAPI, 0.4 μg ml-1 HCS Cellmask Deep Red in PBS+0.1% (v/v) Triton X-100, 30 min, room temperature) and washed with 250 μl PBS. Finally, PBS+0.05% (v/v) thimerosal was added to the wells, the plates were sealed and imaged on a high-content microscope (GE IN Cell 1000 or GE IN Cell 2000) using a 10× objective. Image analysis was carried out with GE IN Cell Analyzer 1000 Workstation using the “Multi Target Analysis” module. Settings for segmentation were as follows: nuclei: minimum area: 142.384 μm^2, sensitivity: 81, method: top-hat; cells: characteristic area: 2500 μm^2, sensitivity: 60, method: multiscale top-hat; organelles (amastigotes): granule size 1-3, 3 scales, sensitivity: 90, detection in entire cell. […]

Data set [9] concerns Leishmania donovani. As to the kind of experiment: Ld-cAxAm-TP-pMIC assay. It counts as cell-based. Conditions: read-out: Ld-cAxAm-TP-pMIC pEC50 (converted).
For another data set, the system named is M. tuberculosis H37Rv. As to the kind of experiment: In vitro inhibition of M. tuberculosis H37Rv (MIC, resazurin). It counts as cell-based. Conditions: Mycobacterium tuberculosis, read-out: Mtb MIC.
The next data set has as its system Plasmodium falciparum. Description: Anti-malarial in vivo efficacy, Plasmodium falciparum SCID mouse model. Conditions: 20 mg/kg, 4 days. The source says: Measurement of Anti-Malarial In Vivo Efficacy The in vivo measurement of the potential efficacy of compounds of formula (I) in a malarial model has been carried out. These in vivo experiments were run in accordance with the method published in Jimenez-Diaz, M. B. et al., Antimicrob. Agents Chemother. 53, 4533-4536, (2009). Results from these experiments are provided in the Experimental Results hereinafter.

The mark [10] stands for this setting: read-out: Pf-KRS pIC50 (converted).

T1 sequence (Q8IDJ8 entry or part of it, looked up, natural form): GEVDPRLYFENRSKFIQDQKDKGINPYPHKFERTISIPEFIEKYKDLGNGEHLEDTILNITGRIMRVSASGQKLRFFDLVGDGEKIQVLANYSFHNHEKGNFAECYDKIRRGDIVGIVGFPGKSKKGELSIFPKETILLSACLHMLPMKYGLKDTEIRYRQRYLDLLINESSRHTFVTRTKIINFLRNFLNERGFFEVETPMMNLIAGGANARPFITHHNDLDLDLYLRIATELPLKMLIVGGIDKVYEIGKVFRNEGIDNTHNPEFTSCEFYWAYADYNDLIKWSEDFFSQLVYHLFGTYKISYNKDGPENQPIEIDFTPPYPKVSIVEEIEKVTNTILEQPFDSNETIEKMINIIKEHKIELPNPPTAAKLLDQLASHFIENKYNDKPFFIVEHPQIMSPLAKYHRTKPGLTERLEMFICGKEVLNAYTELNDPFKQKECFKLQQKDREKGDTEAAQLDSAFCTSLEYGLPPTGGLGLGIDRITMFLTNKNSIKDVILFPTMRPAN
PfLysRS, sequence (Q8IDJ8 1-583): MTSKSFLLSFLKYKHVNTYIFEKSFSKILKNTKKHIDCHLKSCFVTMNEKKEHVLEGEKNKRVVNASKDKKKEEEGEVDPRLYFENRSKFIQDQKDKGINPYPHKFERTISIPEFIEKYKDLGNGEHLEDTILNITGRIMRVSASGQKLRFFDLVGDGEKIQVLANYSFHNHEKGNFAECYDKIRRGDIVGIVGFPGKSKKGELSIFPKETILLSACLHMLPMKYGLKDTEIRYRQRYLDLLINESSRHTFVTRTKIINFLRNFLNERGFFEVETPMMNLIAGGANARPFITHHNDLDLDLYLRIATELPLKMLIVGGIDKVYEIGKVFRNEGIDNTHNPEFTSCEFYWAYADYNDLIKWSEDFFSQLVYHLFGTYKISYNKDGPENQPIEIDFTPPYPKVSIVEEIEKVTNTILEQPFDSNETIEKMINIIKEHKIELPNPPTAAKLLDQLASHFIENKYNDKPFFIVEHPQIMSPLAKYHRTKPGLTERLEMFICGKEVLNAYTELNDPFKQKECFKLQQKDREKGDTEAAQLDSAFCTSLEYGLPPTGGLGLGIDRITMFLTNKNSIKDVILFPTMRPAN

In [1] (Pf-KRS pIC50), `O=C(NCC1(O)CCCCC1)c1cc(=O)c2ccc(F)c(O)c2o1` [Example 77, 7-fluoro-8-hydroxy-N-((1-hydroxycyclohexyl)methyl)-4-oxo-4H-chromene-2-carboxamide] showed an IC50 of 0.1 µM. The EC50 was 0.126 µM in [2], 0.126 µM in the data set on Cryptosporidium parvum [3] and 39.8 µM with Hep G2. In the data set with Cryptosporidium parvum [4], the “% Reduction in parasitaemia” value is 99.6%.

With `C[C@H]1CCC[C@H](C[C@H]2Cc3cc(O)cc(O)c3C(=O)O2)O1` [Cladosporin, cladosporin], the figures for the “selectivity vs HsLysRS” value (on PfLysRS; in data set [5] (Sm LysRS vs HsLysRS)) were “more than 100 fold” and “more than 60 fold”, respectively. In data set [5] (Sharma et al., read-out: Sm LysRS IC50), the IC50 was 0.097 µM. The “inhibition of blood and liver stages of Plasmodium” value in data set [6] was “nanomolar inhibitor”. The bioavailability entry in data set [7] is recorded as “poorly bioavailable”.

`O=C(NCC1CCCCC1)c1cc(=O)c2ccc(F)c(O)c2o1` [Example 78, N-(cyclohexylmethyl)-7-fluoro-8-hydroxy-4-oxo-4H-chromene-2-carboxamide]: the IC50 in data set [1] (setting [10]) is 0.0794 µM. Further, the EC50 in [2] was 0.1 µM; in the data set on Cryptosporidium parvum [3], 0.001 µM; in the data set on Hep G2, 20 µM. Besides, the “% Reduction in parasitaemia” value with Cryptosporidium parvum [4] is 99.4%.

Consider `O=C(NCC1(O)CCCCC1)c1cc(=O)c2cc(Cl)ccc2o1` [Example 48, 6-chloro-N-[(1-hydroxycyclohexyl)methyl]-4-oxo-chromene-2-carboxamide], for which the IC50 in [1] (setting [10]) is 0.126 µM. The EC50 in [2] was 0.398 µM; in the data set with Cryptosporidium parvum [3], 0.0631 µM; in the data set with Leishmania donovani [8], 7.94 µM; in the data set on THP-1 cells it was greater than 50.1 µM; with Leishmania donovani [9], 10 µM; with Hep G2 it was 31.6 µM.

In the case of `O=C(NCC1(O)CCCCC1)c1cc(=O)c2cc(F)cc(O)c2o1` [Example 74, 6-fluoro-8-hydroxy-N-((1-hydroxycyclohexyl)methyl)-4-oxo-4H-chromene-2-carboxamide], in [1] (setting [10]), the IC50 is 0.0501 µM. Besides, the results for the EC50 (in [2]; in the data set on Cryptosporidium parvum [3]; in the data set with Hep G2) were 0.0631 µM, 0.0398 µM and 31.6 µM, respectively. Besides, the MIC in the data set on M. tuberculosis H37Rv was 25 µM (≈ 8.38 µg/mL). For the same compound, the “% Reduction in parasitaemia” value in the data set with Cryptosporidium parvum [4] stood at 92.5%.

On to `O=C(NCC1(O)CCCCC1)c1cc(=O)c2cc(O)cc(F)c2o1` [Example 81, 8-fluoro-6-hydroxy-N-((1-hydroxycyclohexyl)methyl)-4-oxo-4H-chromene-2-carboxamide], for which, in [1] (setting [10]), the IC50 was 0.2 µM. Besides, the EC50 was 0.126 µM in the data set on Cryptosporidium parvum [3]; 20 µM with Leishmania donovani [8]; greater than 50.1 µM with THP-1 cells; 6.31 µM in the data set on Leishmania donovani [9]; 15.8 µM with Hep G2.

Consider `O=C(NCC1(O)CCC(F)(F)CC1)c1cc(=O)c2cc(F)ccc2o1` [Example 54, N-[(4,4-difluoro-1-hydroxy-cyclohexyl)methyl]-6-fluoro-4-oxo-chromene-2-carboxamide], for which the IC50 in [1] (setting [10]) was 0.126 µM and 0.251 µM. Also, the “Cryptosporidium parvum pEC50” value in the data set with Cryptosporidium parvum [3] turned out to be 5.8. Also, the EC50 in the data set with Cryptosporidium parvum [3] is 1.26 µM; in the data set on Leishmania donovani [8], 31.6 µM; in the data set with THP-1 cells, 50.1 µM; in the data set on Leishmania donovani [9], 12.6 µM; in the data set on Hep G2, 50.1 µM. For the same compound, the “% Reduction in parasitaemia” value in the data set on Plasmodium falciparum stood at 99.2%.
